Patent publication US20210206758A1, “NAPHTHYRIDINES AS INTEGRIN ANTAGONISTS” (GlaxoSmithKline Intellectual Property Development Limited, priority 2016, published 2021)
Values joined by “and” are separate entries in the source; they are usually repeats but may differ in a detail not shown here. Equal values may be shown once.

Experiments:
Format in all cases: cell-based
αvβ5 = target: T1, αvβ5 (Homo sapiens, UniProt P06756+P18084); assay: Cell adhesion assay, K562-αvβ5 (Vitronectin); details: K562-αvβ5 cells, ligand Vitronectin, 2 mM MgCl2; for IC50: mean, read-out: αvβ5 pIC50 (mean affinity, cell Adhesion Assay) (converted)
T1 construct: expressed in transfected cells; host or cells: K562
Procedure: (§1) Reagents and methods utilised are as described [Ludbrook et al, Biochem. J. 2003, 369, 311 and Macdonald et al. ACS Med. Chem. Lett. 2014, 5, 1207-1212 for αvβ8 assay), with the following points of clarification. The following cell lines are used, with ligands in brackets: K562-αvβ3 (LAP-b1), K562-αvβ5 (Vitronectin), K562-αvβ6 (LAP-b1), K562-αvβ8 (LAP-b1), A549-αvβ1 (LAP-b1). The divalent cation used to facilitate adhesion is 2 mM MgCl2. Adhesion is quantified by cell labelling with the fluorescent dye BCECF-AM (Life Technologies), where cell suspensions at 3×10^6 cells/mL are incubated with 0.33 uL/mL of 30 mM BCECF-AM at 37° C. for 10 minutes, then 50 μL/well are dispensed into the 96-well assay plate. At the assay conclusion cells that adhered are lysed using 50 μL/well of 0.5% Triton X-100 in H2O to release fluorescence. Fluorescence intensity is detected using an Envision® plate reader (Perkin Elmer). For active antagonists in the assay, data is fitted to a 4 parameter logistic equation for IC50 determinations.

αvβ8 = target: T2, αvβ8 (Homo sapiens, UniProt P06756+P26012); assay: Cell adhesion assay, K562-αvβ8 (LAP-b1); details: K562-αvβ8 cells, ligand LAP-b1, 2 mM MgCl2; for IC50: mean, read-out: αvβ8 pIC50 (mean affinity, cell Adhesion Assay) (converted)
T2 construct: expressed in transfected cells; host or cells: K562
Procedure: as §1

αvβ6 = target: T3, αvβ6 (Homo sapiens, UniProt P06756+P18564); assay: Cell adhesion assay, K562-αvβ6 (LAP-b1); details: K562-αvβ6 cells, ligand LAP-b1, 2 mM MgCl2; for IC50: mean, read-out: αvβ6 pIC50 (mean affinity, cell Adhesion Assay) (converted)
T3 construct: expressed in transfected cells; host or cells: K562
Procedure: as §1

αvβ3 = target: T4, αvβ3 (Homo sapiens, UniProt P05106+P06756); assay: Cell adhesion assay, K562-αvβ3 (LAP-b1); details: K562-αvβ3 cells, ligand LAP-b1, 2 mM MgCl2; for IC50: mean, read-out: αvβ3 pIC50 (mean affinity, cell Adhesion Assay) (converted)
T4 construct: expressed in transfected cells; host or cells: K562
Procedure: as §1

αvβ1 = target: T5, αvβ1 (Homo sapiens, UniProt P05556+P06756); assay: Cell adhesion assay, A549-αvβ1 (LAP-b1); details: A549-αvβ1 cells, ligand LAP-b1, 2 mM MgCl2; for IC50: mean, read-out: αvβ1 pIC50 (mean affinity, cell Adhesion Assay) (converted)
T5 construct: host or cells: A549
Procedure: as §1

T1 sequence (P06756 31-889 limits assumed): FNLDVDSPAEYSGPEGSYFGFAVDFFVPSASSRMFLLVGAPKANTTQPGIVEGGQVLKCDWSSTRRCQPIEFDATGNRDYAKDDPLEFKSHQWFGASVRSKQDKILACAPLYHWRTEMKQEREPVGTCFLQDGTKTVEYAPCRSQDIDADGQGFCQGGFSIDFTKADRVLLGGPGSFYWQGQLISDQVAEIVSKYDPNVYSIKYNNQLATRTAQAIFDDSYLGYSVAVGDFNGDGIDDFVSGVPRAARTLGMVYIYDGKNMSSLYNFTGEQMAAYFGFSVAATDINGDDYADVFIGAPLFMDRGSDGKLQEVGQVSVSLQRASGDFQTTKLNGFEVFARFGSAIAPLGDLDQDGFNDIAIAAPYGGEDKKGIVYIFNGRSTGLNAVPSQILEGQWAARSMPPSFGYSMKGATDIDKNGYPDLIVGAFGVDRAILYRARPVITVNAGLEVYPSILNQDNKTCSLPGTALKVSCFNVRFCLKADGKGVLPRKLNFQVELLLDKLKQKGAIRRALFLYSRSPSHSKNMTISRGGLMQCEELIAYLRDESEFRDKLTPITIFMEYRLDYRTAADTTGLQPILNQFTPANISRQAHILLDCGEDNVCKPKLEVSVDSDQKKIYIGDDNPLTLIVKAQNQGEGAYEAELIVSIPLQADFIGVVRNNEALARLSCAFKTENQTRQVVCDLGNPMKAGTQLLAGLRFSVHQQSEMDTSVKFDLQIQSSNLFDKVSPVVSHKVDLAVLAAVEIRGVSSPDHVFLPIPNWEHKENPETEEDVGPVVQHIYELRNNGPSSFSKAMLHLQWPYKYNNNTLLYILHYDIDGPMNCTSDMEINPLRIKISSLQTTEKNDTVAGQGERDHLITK
T1 sequence (P06756 891-1048 partner limits assumed): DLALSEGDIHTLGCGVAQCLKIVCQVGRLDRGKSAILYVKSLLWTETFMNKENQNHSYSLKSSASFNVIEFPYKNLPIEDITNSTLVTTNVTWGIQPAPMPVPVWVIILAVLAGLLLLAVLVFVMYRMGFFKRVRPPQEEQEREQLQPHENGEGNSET
T1 sequence (P18084 24-799): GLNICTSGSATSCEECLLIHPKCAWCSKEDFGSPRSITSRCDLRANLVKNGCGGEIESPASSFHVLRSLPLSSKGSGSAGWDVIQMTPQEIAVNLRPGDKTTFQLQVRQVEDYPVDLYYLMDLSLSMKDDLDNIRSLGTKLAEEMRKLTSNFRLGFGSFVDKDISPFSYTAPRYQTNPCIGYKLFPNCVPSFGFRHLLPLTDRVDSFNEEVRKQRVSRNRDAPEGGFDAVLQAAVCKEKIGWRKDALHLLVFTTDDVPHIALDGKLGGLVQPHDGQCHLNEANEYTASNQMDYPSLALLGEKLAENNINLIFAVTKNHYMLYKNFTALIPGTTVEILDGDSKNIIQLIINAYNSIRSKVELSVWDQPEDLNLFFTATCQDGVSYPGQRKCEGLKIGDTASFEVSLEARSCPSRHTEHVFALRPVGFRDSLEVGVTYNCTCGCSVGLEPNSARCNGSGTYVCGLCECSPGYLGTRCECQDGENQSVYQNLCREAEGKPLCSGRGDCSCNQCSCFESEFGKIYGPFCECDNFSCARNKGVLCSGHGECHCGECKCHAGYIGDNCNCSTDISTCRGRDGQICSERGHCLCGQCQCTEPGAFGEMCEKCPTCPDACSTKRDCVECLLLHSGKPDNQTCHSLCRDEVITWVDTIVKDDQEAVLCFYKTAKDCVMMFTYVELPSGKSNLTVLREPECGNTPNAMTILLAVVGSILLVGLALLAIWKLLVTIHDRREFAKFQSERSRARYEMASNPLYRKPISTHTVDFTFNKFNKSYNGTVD
T2 sequence (P06756 31-889 limits assumed): as the sequence (P06756 31-889 limits assumed) above
T2 sequence (P06756 891-1048 partner limits assumed): as the sequence (P06756 891-1048 partner limits assumed) above
T2 sequence (P26012 43-769): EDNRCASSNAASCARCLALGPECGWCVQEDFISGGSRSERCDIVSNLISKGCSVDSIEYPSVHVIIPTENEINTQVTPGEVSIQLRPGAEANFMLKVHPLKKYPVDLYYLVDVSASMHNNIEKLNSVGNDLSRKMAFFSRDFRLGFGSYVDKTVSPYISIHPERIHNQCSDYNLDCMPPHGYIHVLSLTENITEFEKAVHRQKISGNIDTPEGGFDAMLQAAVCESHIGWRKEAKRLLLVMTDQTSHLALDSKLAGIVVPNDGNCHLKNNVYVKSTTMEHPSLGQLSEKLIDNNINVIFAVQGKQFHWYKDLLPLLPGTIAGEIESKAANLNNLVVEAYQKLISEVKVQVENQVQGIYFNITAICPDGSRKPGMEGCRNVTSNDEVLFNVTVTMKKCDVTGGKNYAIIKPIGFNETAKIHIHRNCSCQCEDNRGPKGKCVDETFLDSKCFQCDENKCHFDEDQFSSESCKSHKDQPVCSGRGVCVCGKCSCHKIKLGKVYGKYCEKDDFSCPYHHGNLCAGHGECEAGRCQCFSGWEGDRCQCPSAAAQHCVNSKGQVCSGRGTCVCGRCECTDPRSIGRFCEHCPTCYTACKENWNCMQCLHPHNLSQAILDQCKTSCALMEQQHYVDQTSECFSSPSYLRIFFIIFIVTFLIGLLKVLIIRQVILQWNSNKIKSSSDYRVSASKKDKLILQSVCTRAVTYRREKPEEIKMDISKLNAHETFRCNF
T3 sequence (P06756 31-889 limits assumed): as the sequence (P06756 31-889 limits assumed) above
T3 sequence (P06756 891-1048 partner limits assumed): as the sequence (P06756 891-1048 partner limits assumed) above
T3 sequence (P18564 22-788): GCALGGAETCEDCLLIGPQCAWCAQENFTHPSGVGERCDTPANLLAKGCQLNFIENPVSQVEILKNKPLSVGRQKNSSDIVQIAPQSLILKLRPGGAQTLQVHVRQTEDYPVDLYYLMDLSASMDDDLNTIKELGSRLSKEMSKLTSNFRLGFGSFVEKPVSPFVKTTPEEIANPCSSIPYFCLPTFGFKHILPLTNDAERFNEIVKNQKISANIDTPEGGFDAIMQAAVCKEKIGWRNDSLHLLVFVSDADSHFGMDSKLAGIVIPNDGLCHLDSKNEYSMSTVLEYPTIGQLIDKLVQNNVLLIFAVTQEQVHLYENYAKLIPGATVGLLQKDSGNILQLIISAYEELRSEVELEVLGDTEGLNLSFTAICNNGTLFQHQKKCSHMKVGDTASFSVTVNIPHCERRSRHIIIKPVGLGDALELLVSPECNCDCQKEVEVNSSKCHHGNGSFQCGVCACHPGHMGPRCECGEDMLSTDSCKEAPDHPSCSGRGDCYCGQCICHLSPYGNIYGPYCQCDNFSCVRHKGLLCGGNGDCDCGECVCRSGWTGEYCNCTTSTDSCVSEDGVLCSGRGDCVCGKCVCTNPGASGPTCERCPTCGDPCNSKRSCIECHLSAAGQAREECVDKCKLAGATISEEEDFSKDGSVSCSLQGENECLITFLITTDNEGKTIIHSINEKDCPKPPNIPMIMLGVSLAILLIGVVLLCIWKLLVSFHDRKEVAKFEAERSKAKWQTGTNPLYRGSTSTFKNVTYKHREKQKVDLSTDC
T5 sequence (P06756 31-889 limits assumed): as the sequence (P06756 31-889 limits assumed) above
T5 sequence (P06756 891-1048 partner limits assumed): as the sequence (P06756 891-1048 partner limits assumed) above
T5 sequence (P05556 21-798): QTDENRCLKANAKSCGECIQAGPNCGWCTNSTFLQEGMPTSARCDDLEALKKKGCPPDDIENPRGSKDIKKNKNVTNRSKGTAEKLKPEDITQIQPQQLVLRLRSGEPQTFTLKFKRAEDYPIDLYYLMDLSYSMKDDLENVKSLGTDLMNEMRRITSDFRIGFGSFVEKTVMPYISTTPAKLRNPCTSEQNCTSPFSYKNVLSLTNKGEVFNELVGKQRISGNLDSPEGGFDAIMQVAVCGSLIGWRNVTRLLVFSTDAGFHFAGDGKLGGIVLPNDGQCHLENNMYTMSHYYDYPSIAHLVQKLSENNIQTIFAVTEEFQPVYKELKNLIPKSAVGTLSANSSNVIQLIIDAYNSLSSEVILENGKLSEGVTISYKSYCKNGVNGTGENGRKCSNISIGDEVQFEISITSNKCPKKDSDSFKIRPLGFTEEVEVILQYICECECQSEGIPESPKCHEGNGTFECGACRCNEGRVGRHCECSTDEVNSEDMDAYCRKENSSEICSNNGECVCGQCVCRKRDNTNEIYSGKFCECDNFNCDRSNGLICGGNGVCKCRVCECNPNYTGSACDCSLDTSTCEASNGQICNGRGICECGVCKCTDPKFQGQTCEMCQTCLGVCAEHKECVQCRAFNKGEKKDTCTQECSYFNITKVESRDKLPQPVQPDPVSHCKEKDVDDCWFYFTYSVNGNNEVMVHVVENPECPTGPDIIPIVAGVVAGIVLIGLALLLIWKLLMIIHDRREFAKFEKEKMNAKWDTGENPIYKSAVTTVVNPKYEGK

COCCOc1ccc(F)c(C(CC(=O)O)CN2CC[C@@](F)(CCc3ccc4c(n3)NCCC4)C2)c1 (stereo partly drawn) [Example 14, 4-((S)-3-Fluoro-3-(2-(5,6,7,8-tetrahydro-1,8-naphthyridin-2-yl)ethyl)pyrrolidin-1-yl)-3-(2-fluoro-5-(2-methoxyethoxy)phenyl)butanoic acid]
IC50 (αvβ5): 25.1 nM
IC50 (αvβ8): 158 nM
IC50 (αvβ6): 25.1 nM
IC50 (αvβ3): 501 nM
IC50 (αvβ1): 2000 nM

COCC(C)(C)Oc1cccc([C@H](CC(=O)O)CN2CC[C@@](F)(CCc3ccc4c(n3)NCCC4)C2)c1 [Example 7, (S)-4-((S)-3-Fluoro-3-(2-(5,6,7,8-tetrahydro-1,8-naphthyridin-2-yl)ethyl)pyrrolidin-1-yl)-3-(3-((1-methoxy-2-methylpropan-2-yl)oxy)phenyl)butanoic acid]
IC50 (αvβ5): 63.1 nM
IC50 (αvβ8): 50.1 nM
IC50 (αvβ6): 20 nM
IC50 (αvβ3): 79.4 nM
IC50 (αvβ1): 63.1 nM

O=C(O)C[C@H](CN1CC[C@@](F)(CCc2ccc3c(n2)NCCC3)C1)c1cccc(OC2COC2)c1 [Example 8, (S)-4-((S)-3-Fluoro-3-(2-(5,6,7,8-tetrahydro-1,8-naphthyridin-2-yl)ethyl)pyrrolidin-1-yl)-3-(3-(oxetan-3-yloxy)phenyl)butanoic acid]
IC50 (αvβ5): 63.1 nM
IC50 (αvβ8): 31.6 nM
IC50 (αvβ6): 12.6 nM
IC50 (αvβ3): 100 nM
IC50 (αvβ1): 398 nM

O=C(O)C[C@H](CN1CC[C@@](F)(CCc2ccc3c(n2)NCCC3)C1)c1cccc(O[C@@H]2CCOC2)c1 [Example 3, (S)-4-((S)-3-Fluoro-3-(2-(5,6,7,8-tetrahydro-1,8-naphthyridin-2-yl)ethyl)pyrrolidin-1-yl)-3-(3-(((R)-tetrahydrofuran-3-yl)oxy)phenyl)butanoic acid]
IC50 (αvβ5): 39.8 nM
IC50 (αvβ8): 50.1 nM
IC50 (αvβ6): 5.01 nM
IC50 (αvβ3): 100 nM
IC50 (αvβ1): 200 nM

CO[C@H](C)COc1cccc([C@H](CC(=O)O)CN2CC[C@@](F)(CCc3ccc4c(n3)NCCC4)C2)c1 [Example 5]
IC50 (αvβ5): 25.1 nM
IC50 (αvβ8): 31.6 nM
IC50 (αvβ6): 12.6 nM
IC50 (αvβ3): 31.6 nM
IC50 (αvβ1): 200 nM

O=C(O)/C=C\C(=O)O.O=C(O)C[C@H](CN1CC[C@@](F)(CCc2ccc3c(n2)NCCC3)C1)c1cccc(O[C@@H]2CCOC2)c1 [Example 17, (S)-4-((S)-3-Fluoro-3-(2-(5,6,7,8-tetrahydro-1,8-naphthyridin-2-yl)ethyl)pyrrolidin-1-yl)-3-(3-(((R)-tetrahydrofuran-3-yl)oxy)phenyl)butanoic acid (1:1) maleate salt]
αvβ5 pIC50 (mean affinity, cell Adhesion Assay) (αvβ5): 8.1
αvβ8 pIC50 (mean affinity, cell Adhesion Assay) (αvβ8): 7.7
αvβ6 pIC50 (mean affinity, cell Adhesion Assay) (αvβ6): 8.2
αvβ3 pIC50 (mean affinity, cell Adhesion Assay) (αvβ3): 7.3
αvβ1 pIC50 (mean affinity, cell Adhesion Assay) (αvβ1): 6.9

O=C(O)C[C@H](CN1CC[C@@](F)(CCc2ccc3c(n2)NCCC3)C1)c1cccc(C2CCOC2)c1 (single isomer, unassigned; isomer 1) [Example 10]
IC50 (αvβ5): 79.4 nM
IC50 (αvβ8): 20 nM
IC50 (αvβ6): 12.6 nM
IC50 (αvβ3): 63.1 nM
IC50 (αvβ1): 398 nM

O=C(O)CC(O)(CC(=O)O)C(=O)O.O=C(O)C[C@H](CN1CC[C@@](F)(CCc2ccc3c(n2)NCCC3)C1)c1cccc(O[C@@H]2CCOC2)c1 [Example 16, (S)-4-((S)-3-Fluoro-3-(2-(5,6,7,8-tetrahydro-1,8-naphthyridin-2-yl)ethyl)pyrrolidin-1-yl)-3-(3-(((R)-tetrahydrofuran-3-yl)oxy)phenyl)butanoic acid (1:1) citrate salt]
αvβ5 pIC50 (mean affinity, cell Adhesion Assay) (αvβ5): 7.4
αvβ3 pIC50 (mean affinity, cell Adhesion Assay) (αvβ3): 7.6
αvβ1 pIC50 (mean affinity, cell Adhesion Assay) (αvβ1): 6.8

COCCOc1cc(OCCF)cc(C(CC(=O)O)CN2CC[C@@](F)(CCc3ccc4c(n3)NCCC4)C2)c1 (stereo partly drawn) [Example 13, 4-((S)-3-Fluoro-3-(2-(5,6,7,8-tetrahydro-1,8-naphthyridin-2-yl)ethyl)pyrrolidin-1-yl)-3-(3-(2-fluoroethoxy)-5-(2-methoxyethoxy)phenyl)butanoic acid]
IC50 (αvβ5): 100 nM
IC50 (αvβ8): 31.6 nM
IC50 (αvβ6): 10 nM
IC50 (αvβ3): 79.4 nM
IC50 (αvβ1): 126 nM

O=C(O)C[C@H](CN1CC[C@@](F)(CCc2ccc3c(n2)NCCC3)C1)c1cccc(C2CCOC2)c1 (single isomer, unassigned; isomer 2) [Example 11]
IC50 (αvβ5): 126 nM
IC50 (αvβ1): 126 nM

O=C(O)C[C@H](CN1CC[C@@](F)(CCc2ccc3c(n2)NCCC3)C1)c1cccc(OC[C@@H]2CCCO2)c1 [Example 2, (S)-4-((S)-3-Fluoro-3-(2-(5,6,7,8-tetrahydro-1,8-naphthyridin-2-yl)ethyl)pyrrolidin-1-yl)-3-(3-(((S)-tetrahydrofuran-2-yl)methoxy)phenyl)butanoic acid]
IC50 (αvβ5): 100 nM
IC50 (αvβ8): 100 nM
IC50 (αvβ6): 15.8 nM
IC50 (αvβ1): 1000 nM

O=C(O)/C=C\C(=O)O.O=C(O)C[C@H](CN1CC[C@@](F)(CCc2ccc3c(n2)NCCC3)C1)c1cccc(O[C@H]2CCOC2)c1 [Example 19, (S)-4-((S)-3-Fluoro-3-(2-(5,6,7,8-tetrahydro-1,8-naphthyridin-2-yl)ethyl)pyrrolidin-1-yl)-3-(3-(((S)-tetrahydrofuran-3-yl)oxy)phenyl)butanoic acid (1:1) maleate salt]
αvβ5 pIC50 (mean affinity, cell Adhesion Assay) (αvβ5): 7.5
αvβ8 pIC50 (mean affinity, cell Adhesion Assay) (αvβ8): 7.4
αvβ6 pIC50 (mean affinity, cell Adhesion Assay) (αvβ6): 8.2
αvβ3 pIC50 (mean affinity, cell Adhesion Assay) (αvβ3): 7.3
αvβ1 pIC50 (mean affinity, cell Adhesion Assay) (αvβ1): 6.6

CO[C@@H](C)COc1cccc([C@H](CC(=O)O)CN2CC[C@@](F)(CCc3ccc4c(n3)NCCC4)C2)c1 [Example 6]
IC50 (αvβ5): 316 nM
IC50 (αvβ8): 39.8 nM
IC50 (αvβ6): 12.6 nM
IC50 (αvβ3): 63.1 nM
IC50 (αvβ1): 126 nM

O=C(O)C[C@H](CN1CC[C@@](F)(CCc2ccc3c(n2)NCCC3)C1)c1cccc(OC2CCOCC2)c1 [Example 15, (S)-4-((S)-3-Fluoro-3-(2-(5,6,7,8-tetrahydro-1,8-naphthyridin-2-yl)ethyl)pyrrolidin-1-yl)-3-(3-((tetrahydro-2H-pyran-4-yl)oxy)phenyl)butanoic acid]
IC50 (αvβ5): 39.8 nM
IC50 (αvβ6): 10 nM and 12.6 nM
IC50 (αvβ3): 20 nM
IC50 (αvβ1): 316 nM

O=C(O)CC(O)(CC(=O)O)C(=O)O.O=C(O)C[C@H](CN1CC[C@@](F)(CCc2ccc3c(n2)NCCC3)C1)c1cccc(O[C@H]2CCOC2)c1 [Example 18, (S)-4-((S)-3-Fluoro-3-(2-(5,6,7,8-tetrahydro-1,8-naphthyridin-2-yl)ethyl)pyrrolidin-1-yl)-3-(3-(((S)-tetrahydrofuran-3-yl)oxy)phenyl)butanoic acid (1:1) citrate salt]
αvβ5 pIC50 (mean affinity, cell Adhesion Assay) (αvβ5): 7.5
αvβ8 pIC50 (mean affinity, cell Adhesion Assay) (αvβ8): 7.7
αvβ6 pIC50 (mean affinity, cell Adhesion Assay) (αvβ6): 8.3
αvβ3 pIC50 (mean affinity, cell Adhesion Assay) (αvβ3): 7.3
αvβ1 pIC50 (mean affinity, cell Adhesion Assay) (αvβ1): 6.4

O=C(O)C[C@H](CN1CC[C@@](F)(CCc2ccc3c(n2)NCCC3)C1)c1cccc(O[C@H]2CCOC2)c1 [Example 4, (S)-4-((S)-3-Fluoro-3-(2-(5,6,7,8-tetrahydro-1,8-naphthyridin-2-yl)ethyl)pyrrolidin-1-yl)-3-(3-(((S)-tetrahydrofuran-3-yl)oxy)phenyl)butanoic acid]
IC50 (αvβ5): 79.4 nM
IC50 (αvβ8): 31.6 nM
IC50 (αvβ6): 5.01 nM
IC50 (αvβ3): 50.1 nM
IC50 (αvβ1): 100 nM

COCCOc1cc(OCCOC)cc([C@H](CC(=O)O)CN2CC[C@@](F)(CCc3ccc4c(n3)NCCC4)C2)c1 [Example 9, (S)-3-(3,5-Bis(2-methoxyethoxy)phenyl)-4-((S)-3-fluoro-3-(2-(5,6,7,8-tetrahydro-1,8-naphthyridin-2-yl)ethyl)pyrrolidin-1-yl)butanoic acid]
IC50 (αvβ8): 50.1 nM
IC50 (αvβ6): 10 nM
IC50 (αvβ1): 1000 nM

O=C(O)C[C@H](CN1CC[C@@](F)(CCc2ccc3c(n2)NCCC3)C1)c1cccc(OCC2COC2)c1 [Example 12, (S)-4-((S)-3-Fluoro-3-(2-(5,6,7,8-tetrahydro-1,8-naphthyridin-2-yl)ethyl)pyrrolidin-1-yl)-3-(3-(oxetan-3-ylmethoxy)phenyl)butanoic acid]
IC50 (αvβ5): 31.6 nM
IC50 (αvβ8): 25.1 nM
IC50 (αvβ6): 15.8 nM
IC50 (αvβ3): 63.1 nM
IC50 (αvβ1): 251 nM
